“And” between values parts separate entries of the source, which are not always exact repeats. Identical values can stand only once. Like-named read-outs stand apart in the source and are kept apart here.
What was measured:
[1] = target: T1, rat intestinal sucrase (Rattus norvegicus, UniProt P23739); test: Rat intestinal glycosidases: sucrase; type: biochemical; conditions: rat intestinal brush border membranes
T1 construct: Enzyme activities were prepared from brush border membranes of rat small intestine; from tissue; host or cells: rat small intestine brush border membranes
Procedure: (§1) Enzyme activities were prepared from brush border membranes of rat small intestine using disaccharides as substrates as described by Yasuda et al., 2002.

[2] = test system: Naringinase Penicillium decumbens; test: Glycosidase inhibition: Naringinase Penicillium decumbens; type: biochemical; conditions: compounds tested at 0.8 mM
From the text: (§2) The results tabulated below were obtained using commercially available glycosidases and p-nitrophenyl-substrates using standard methods described for example by Watson et al (1997) Phytochemistry 46 255-259. All enzymes and substrates were bought from Sigma. Enzyme and substrate solutions were made using sodium phosphate buffers at the pH optima values. The enzymes used were α-D-glucosidase Saccharomyces cerevisiae, Bacillus stearothermophilus, Oryzae sativa), β-D-glucosidase (Almond), α-D-mannosidase (Jack bean), α-D-galactosidase (Green coffee beans), β-D-galactosidase (Bovine liver), α-L-fucosidase (Bovine kidney), N-acetyl-β-D-glucosaminidase (Bovine kidney, Jack bean, Aspergillus oryzae), Naringinase (Penicillium decumbens) and amyloglucosidase (Aspergillus niger). All enzymes were used with the appropriate p-nitrophenyl substrates (5 mM). Amyloglucosidase activity was measured using amylopectin (0.1%) (Merck) mixed with sodium phosphate buffer, pH 4.5 in a glass bottle, and healed in a boiling water bath for 20 minutes to dissolve with released glucose measured using ‘Trinder’ glucose detection solution (Sigma).
(§3) All enzymes and para-nitrophenyl substrates were purchased from Sigma, with the exception of beta-mannosidase which came from Megazyme. Enzymes were assayed at 27° C. in 0.1M citric acid/0.2M disodium hydrogen phosphate buffers at the optimum pH for the enzyme. The incubation mixture consisted of 10 μl enzyme solution, 10 μl of 1 mg/ml aqueous solution of extract and 50 μl of the appropriate 5 mM para-nitrophenyl substrate made up in buffer at the optimum pH for the enzyme. The reactions were stopped by addition of 70 μl 0.4M glycine (pH 10.4) during the exponential phase of the reaction, which had been determined at the beginning using uninhibited assays in which water replaced inhibitor. Final absorbances were read at 405 nm using a Versamax microplate reader (Molecular Devices). Assays were carried out in triplicate, and the values given are means of the three replicates per assay. […]

[3] = target: T2, β-Glucuronidase Bovine liver (Bos taurus, UniProt A3KMY8); test: Glycosidase inhibition: β-Glucuronidase Bovine liver; type: biochemical; conditions: for inhibition at 800 µM: compounds tested at 0.8 mM;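 as to all read-outs here: bovine liver β-glucuronidase acting on p-nitrophenyl β-D-glucuronide substrate in citric acid/disodium hydrogen phosphate buffer, pH 5.0, 27 °C, mean of triplicate runs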
T2 construct: The assay involved the use of Bovine liver β-glucuronidase; purchased Sigma; host or cells: bovine liver
T2 sequence (A3KMY8 1-652): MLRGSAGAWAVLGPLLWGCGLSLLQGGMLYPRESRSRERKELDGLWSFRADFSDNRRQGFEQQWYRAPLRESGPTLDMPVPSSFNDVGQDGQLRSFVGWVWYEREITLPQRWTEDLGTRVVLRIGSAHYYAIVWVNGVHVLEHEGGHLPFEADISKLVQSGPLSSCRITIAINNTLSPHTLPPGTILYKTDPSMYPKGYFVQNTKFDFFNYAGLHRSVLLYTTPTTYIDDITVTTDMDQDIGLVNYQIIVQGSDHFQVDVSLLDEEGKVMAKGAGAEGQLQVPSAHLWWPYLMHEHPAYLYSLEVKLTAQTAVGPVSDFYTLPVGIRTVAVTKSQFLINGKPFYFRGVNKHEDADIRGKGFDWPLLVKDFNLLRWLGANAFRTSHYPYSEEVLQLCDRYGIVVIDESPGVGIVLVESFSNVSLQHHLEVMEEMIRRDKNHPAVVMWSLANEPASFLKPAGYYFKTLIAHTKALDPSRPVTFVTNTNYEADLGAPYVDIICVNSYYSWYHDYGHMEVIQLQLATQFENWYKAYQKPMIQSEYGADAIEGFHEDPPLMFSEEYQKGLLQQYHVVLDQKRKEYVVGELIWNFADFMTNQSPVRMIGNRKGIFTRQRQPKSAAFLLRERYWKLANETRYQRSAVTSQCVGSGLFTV

[4] = test system: N-acetyl-β-D-glucosaminidase (Bovine kidney); test: Glycosidase inhibition: N-acetyl-β-D-glucosaminidase (Bovine kidney); type: biochemical; conditions: for % inhibition, N-acetyl-β-D-glucosaminidase (Bovine kidney): compounds tested at 0.8 mM;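 as to all read-outs here: enzyme activity followed by cleavage of the matching p-nitrophenyl glycoside (5 mM) in phosphate buffer set to the enzyme's optimal pH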
[5] = Solubility in water; type: physicochemical
[6] = test system: zebrafish larvae; test: Acute Toxicity assay in zebrafish larvae; type: in vivo; conditions: 1 mM, 5 mM, 25 mM, 50 mM, 100 mM, 200 mM, 500 mM aqueous dose, 72-96 hpf
Procedure: The compound of formula (G2) was screened for toxicity liabilities using a validated Acute Toxicity assay. Fertilized eggs were obtained from breeding pairs of adult Tuebingen (Tu) zebrafish and arrayed at the 2-4 cell stage of development into 24-well culture plates containing fresh 0.3× Danieau's solution. Plates were incubated at 28.5° C. in a humidity controlled environment prior to assessment. Stock concentrations of Compound were produced by serial dilution in 100% DMSO (final concentration exposed to larvae, 0.5%). Screening was performed at seven doses (1, 5, 25, 50, 100, 200 and 500 mM) alongside VASTox internal controls and vehicle. Dosing of Compound took place at 72 h post fertilisation (hpf; at which point embryogenesis is complete) with visual assessment of lethality and gross morphology at 96 hpf (24 h incubation). […] were exposed to each dose of Compound giving a total of […] assessed (excluding controls). At 96 hpf, larvae were observed and screened using a dissecting stereomicroscope for the presence or absence of: (1) heartbeat (2) circulation; (3) necrosis; and (4) motility (touch response). If all four criteria were satisfied, a larva would be classified as dead. The compound was screened blind.

[7] = target: T3, rat intestinal isomaltase (Rattus norvegicus, UniProt P23739); test: Rat intestinal glycosidases: isomaltase; type: biochemical; conditions: rat intestinal brush border membranes
T3 construct: Enzyme activities were prepared from brush border membranes of rat small intestine; from tissue; host or cells: rat small intestine brush border membranes
Procedure: as §1

[8] = test system: β-D-glucosidase (Almond); test: Glycosidase inhibition: β-D-glucosidase (Almond); type: biochemical; conditions: compounds tested at 0.8 mM
From the text: as §2, §3

[9] = test system: N-acetyl-β-D-glucosaminidase (Jack bean); test: Glycosidase inhibition: N-acetyl-β-D-glucosaminidase (Jack bean); type: biochemical; conditions: compounds tested at 0.8 mM
From the text: as §2, §3

[10] = test system: β-D-mannosidase Cellullomonas fimi; test: Glycosidase inhibition: β-D-mannosidase Cellullomonas fimi; type: biochemical; conditions: compounds tested at 0.8 mM
Procedure: All enzymes and para-nitrophenyl substrates were purchased from Sigma, with the exception of beta-mannosidase which came from Megazyme. Enzymes were assayed at 27° C. in 0.1M citric acid/0.2M disodium hydrogen phosphate buffers at the optimum pH for the enzyme. The incubation mixture consisted of 10 μl enzyme solution, 10 μl of 1 mg/ml aqueous solution of extract and 50 μl of the appropriate 5 mM para-nitrophenyl substrate made up in buffer at the optimum pH for the enzyme. The reactions were stopped by addition of 70 μl 0.4M glycine (pH 10.4) during the exponential phase of the reaction, which had been determined at the beginning using uninhibited assays in which water replaced inhibitor. Final absorbances were read at 405 nm using a Versamax microplate reader (Molecular Devices). Assays were carried out in triplicate, and the values given are means of the three replicates per assay. (See Watson, A. A., Nash, R. J., Wormald, M. R., Harvey, D. J., Dealler, S., Lees, E., Asano, N., Kizu, H., Kato, A., Griffiths, R. C., Cairns, A. J. and Fleet, G. W. J. (1997). Glycosidase-inhibiting pyrrolidine alkaloids from Hyacinthoides non-scripta. Phytochemistry 46 (2): 255-259.)

[11] = target: glucuronidase (Homo sapiens, UniProt P08236); conditions: Booth et al. (2007) and references therein; cited from earlier work
[12] = target: iduronidase (Homo sapiens, UniProt P35475); conditions: Booth et al. (2007) and references therein; cited from earlier work
[13] = target: T4, rat intestinal cellobiase (Rattus norvegicus, UniProt Q02401); test: Rat intestinal glycosidases: cellobiase; type: biochemical; conditions: rat intestinal brush border membranes
T4 construct: Enzyme activities were prepared from brush border membranes of rat small intestine; from tissue; host or cells: rat small intestine brush border membranes
Procedure: as §1

[14] = read-out: IC50 against mammalian glucuronidase
[15] = pH 5.0, 27° C., p-nitrophenyl β-D-glucuronide, read-out: IC50, β-Glucuronidase Bovine liver

T3 sequence (P23739 whole entry): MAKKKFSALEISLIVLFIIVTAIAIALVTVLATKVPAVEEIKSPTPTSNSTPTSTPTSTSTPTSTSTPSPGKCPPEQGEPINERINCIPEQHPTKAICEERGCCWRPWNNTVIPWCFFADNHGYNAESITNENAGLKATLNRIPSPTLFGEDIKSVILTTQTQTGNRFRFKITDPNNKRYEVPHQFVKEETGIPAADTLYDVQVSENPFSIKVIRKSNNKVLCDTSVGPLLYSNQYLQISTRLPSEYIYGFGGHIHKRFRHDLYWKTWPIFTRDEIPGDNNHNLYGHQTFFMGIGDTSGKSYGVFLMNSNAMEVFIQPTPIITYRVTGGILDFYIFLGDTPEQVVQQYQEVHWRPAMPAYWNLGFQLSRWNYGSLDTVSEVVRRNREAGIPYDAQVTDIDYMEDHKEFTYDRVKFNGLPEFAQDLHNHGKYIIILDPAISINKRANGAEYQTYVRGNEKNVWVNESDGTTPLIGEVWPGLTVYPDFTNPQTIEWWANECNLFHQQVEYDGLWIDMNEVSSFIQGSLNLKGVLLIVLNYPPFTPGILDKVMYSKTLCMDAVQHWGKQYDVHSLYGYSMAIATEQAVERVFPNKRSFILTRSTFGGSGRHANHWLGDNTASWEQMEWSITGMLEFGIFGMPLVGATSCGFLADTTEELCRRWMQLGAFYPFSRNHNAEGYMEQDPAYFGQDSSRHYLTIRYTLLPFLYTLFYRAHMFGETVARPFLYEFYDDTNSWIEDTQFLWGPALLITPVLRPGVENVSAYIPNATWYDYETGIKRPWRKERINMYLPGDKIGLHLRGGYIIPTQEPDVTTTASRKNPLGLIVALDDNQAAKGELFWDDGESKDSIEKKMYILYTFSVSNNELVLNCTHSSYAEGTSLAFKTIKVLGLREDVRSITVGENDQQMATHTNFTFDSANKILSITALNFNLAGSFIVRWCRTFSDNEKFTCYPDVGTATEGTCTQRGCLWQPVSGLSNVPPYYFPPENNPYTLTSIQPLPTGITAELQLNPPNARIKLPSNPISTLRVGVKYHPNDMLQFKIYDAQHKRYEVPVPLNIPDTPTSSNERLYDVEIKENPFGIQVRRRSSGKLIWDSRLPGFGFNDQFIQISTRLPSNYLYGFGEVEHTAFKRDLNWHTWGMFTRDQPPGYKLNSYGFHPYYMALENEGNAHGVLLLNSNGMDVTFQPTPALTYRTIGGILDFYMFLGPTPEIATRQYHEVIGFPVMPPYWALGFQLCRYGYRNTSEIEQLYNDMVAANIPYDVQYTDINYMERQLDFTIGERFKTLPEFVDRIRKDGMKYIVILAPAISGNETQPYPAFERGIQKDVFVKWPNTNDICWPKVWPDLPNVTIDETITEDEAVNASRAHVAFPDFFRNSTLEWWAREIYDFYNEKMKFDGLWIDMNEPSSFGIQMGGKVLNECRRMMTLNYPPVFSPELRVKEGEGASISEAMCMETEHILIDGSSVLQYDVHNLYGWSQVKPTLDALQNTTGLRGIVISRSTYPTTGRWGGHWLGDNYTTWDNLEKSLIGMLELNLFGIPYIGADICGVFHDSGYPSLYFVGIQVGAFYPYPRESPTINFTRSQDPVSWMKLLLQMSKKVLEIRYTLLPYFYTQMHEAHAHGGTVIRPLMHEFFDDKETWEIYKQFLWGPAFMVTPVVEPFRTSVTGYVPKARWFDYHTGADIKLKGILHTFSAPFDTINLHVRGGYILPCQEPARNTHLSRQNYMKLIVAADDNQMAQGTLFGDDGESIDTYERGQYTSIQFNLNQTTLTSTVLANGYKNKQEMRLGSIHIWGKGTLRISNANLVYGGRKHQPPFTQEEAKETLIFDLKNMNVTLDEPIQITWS
T1 sequence (P23739 whole entry): as above
iduronidase, sequence (P35475 28-653): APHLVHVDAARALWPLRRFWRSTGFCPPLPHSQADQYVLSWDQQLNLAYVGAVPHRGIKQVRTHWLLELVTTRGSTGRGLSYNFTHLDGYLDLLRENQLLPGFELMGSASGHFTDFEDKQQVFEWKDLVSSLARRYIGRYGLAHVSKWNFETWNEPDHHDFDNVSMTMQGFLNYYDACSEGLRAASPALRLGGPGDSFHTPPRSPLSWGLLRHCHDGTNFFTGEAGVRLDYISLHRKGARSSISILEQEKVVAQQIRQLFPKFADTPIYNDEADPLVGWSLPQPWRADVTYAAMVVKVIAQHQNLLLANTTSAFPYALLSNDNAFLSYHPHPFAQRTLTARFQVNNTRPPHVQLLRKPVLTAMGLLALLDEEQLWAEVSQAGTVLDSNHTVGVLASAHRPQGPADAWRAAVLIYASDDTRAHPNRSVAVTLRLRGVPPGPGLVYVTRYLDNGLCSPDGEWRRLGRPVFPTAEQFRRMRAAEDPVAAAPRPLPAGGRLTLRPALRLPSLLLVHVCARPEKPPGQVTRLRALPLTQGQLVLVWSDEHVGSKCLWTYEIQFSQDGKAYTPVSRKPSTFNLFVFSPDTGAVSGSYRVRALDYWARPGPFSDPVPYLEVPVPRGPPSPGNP
T4 sequence (Q02401 868-1928): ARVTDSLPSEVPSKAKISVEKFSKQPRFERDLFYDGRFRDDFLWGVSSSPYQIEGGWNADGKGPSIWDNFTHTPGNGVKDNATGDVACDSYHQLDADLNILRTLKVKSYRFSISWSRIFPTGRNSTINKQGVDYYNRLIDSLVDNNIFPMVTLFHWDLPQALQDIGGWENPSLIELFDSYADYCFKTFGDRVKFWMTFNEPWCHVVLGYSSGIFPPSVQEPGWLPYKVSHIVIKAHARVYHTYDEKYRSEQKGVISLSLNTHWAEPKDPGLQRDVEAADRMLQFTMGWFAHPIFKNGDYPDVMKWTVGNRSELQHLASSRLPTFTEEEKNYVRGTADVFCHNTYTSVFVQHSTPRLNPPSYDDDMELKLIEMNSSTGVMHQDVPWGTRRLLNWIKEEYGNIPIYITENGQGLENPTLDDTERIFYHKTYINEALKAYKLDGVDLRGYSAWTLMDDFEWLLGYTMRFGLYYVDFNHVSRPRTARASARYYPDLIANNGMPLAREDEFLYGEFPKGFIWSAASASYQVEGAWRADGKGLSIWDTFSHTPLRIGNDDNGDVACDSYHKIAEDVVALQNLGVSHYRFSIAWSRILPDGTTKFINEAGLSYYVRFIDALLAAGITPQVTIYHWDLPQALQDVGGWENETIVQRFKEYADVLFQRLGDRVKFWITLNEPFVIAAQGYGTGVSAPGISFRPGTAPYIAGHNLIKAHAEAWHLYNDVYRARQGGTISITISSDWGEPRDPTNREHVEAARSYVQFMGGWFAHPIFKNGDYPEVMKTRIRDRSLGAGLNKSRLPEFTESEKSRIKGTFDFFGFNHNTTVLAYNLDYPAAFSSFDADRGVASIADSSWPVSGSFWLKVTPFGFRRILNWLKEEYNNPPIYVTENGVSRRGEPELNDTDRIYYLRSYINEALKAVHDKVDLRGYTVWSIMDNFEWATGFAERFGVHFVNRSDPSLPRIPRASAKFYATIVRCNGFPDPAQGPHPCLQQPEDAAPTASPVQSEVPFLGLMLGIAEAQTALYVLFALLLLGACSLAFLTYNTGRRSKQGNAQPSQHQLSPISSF
glucuronidase, sequence (P08236 23-651): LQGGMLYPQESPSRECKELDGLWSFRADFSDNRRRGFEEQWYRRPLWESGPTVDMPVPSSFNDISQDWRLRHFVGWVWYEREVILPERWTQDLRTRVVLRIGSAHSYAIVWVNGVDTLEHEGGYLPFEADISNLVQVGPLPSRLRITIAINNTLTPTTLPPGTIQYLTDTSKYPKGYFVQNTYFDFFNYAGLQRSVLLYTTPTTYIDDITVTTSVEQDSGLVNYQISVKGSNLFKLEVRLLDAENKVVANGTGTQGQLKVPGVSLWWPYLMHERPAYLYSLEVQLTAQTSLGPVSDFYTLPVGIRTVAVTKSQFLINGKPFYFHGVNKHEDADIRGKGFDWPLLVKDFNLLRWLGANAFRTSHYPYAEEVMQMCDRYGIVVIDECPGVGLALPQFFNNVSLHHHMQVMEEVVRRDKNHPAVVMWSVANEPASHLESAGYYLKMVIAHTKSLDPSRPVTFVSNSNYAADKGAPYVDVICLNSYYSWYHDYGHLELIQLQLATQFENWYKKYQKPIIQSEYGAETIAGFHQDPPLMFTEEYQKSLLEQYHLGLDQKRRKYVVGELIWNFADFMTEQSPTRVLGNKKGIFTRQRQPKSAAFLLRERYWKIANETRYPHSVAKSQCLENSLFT

SMILES: O=C(O)[C@H]1NC[C@H](O)[C@@H](O)[C@@H]1O [Compound G2, 2S,3R,4R,5S-trihydroxypiperidine-2-carboxylic acid]
- IC50 [1]: > 1000 µM
- % inhibition, Naringinase Penicillium decumbens [2]: NI (NI = no inhibition)
- inhibition at 800 µM [3]: 90%
- IC50 [3, 14]: 107 µM
- % inhibition, N-acetyl-β-D-glucosaminidase (Bovine kidney) [4]: NI (NI = no inhibition)
- solubility in water [5]: freely soluble
- acute toxicity to zebrafish larvae [6]: did not cause acute toxicity
- IC50 [7]: > 1000 µM
- % inhibition, β-D-glucosidase (Almond) [8]: NI (NI = no inhibition)
- % inhibition, N-acetyl-β-D-glucosaminidase (Jack bean) [9]: 10%
- % inhibition, β-D-mannosidase Cellullomonas fimi [10]: NI (NI = no inhibition)
- inhibition of glucuronidase [11]: weak inhibitor
- inhibition of iduronidase [12]: weak inhibitor
- IC50 [13]: > 1000 µM

SMILES: O=C(O)CN1[C@H](CO)[C@@H](O)[C@H](O)[C@H]1CO [Compound S2, 2-((2R,3R,4R,5R)-3,4-Dihydroxy-2,5-bis(hydroxymethyl)pyrrolidin-1-yl)acetic acid]
- IC50 [3, 15]: 507 µM
- % inhibition, β-D-glucosidase (Almond) [8]: 55%

SMILES: O=C(O)CCN1C[C@H](O)[C@@H](O)[C@H](O)[C@H]1CO [Compound T1]
- IC50 [3, 14]: 50 µM
- % inhibition, N-acetyl-β-D-glucosaminidase (Bovine kidney) [4]: 86.1%
- IC50 ([4]; read-out: IC50, N-acetyl-β-D-glucosaminidase (Bovine kidney)): 32.2 µM
- IC50 ([4]; read-out: IC50 against mammalian 6-N-acetylglucosaminidase (hexosaminidase)): 32 µM

SMILES: CCCCOC(=O)[C@@H]1[C@@H](O)[C@H](O)[C@@H](O)CN1CCCC [Compound T2, (2S,3R,4R,5S)-Butyl 1-butyl-3,4,5-trihydroxypiperidine-2-carboxylate]
- IC50 [3, 15]: 280 µM

SMILES: OC[C@H]1NC[C@H](O)[C@@H](O)[C@@H]1O [DNJ, 1-deoxynojirimycin, reference compound]
- % inhibition, Naringinase Penicillium decumbens [2]: 20% and 21%
- inhibition at 800 µM [3]: < 10%
- % inhibition, N-acetyl-β-D-glucosaminidase (Jack bean) [9]: NI (NI = no inhibition)

Reference: US20110015226A1, “Treatment of Energy Utilization Disease” (SUMMIT CORPORATION PLC, priority 2008, published 2011)
